Experimental data taken from patent US20230293517A1, “ANTAGONIST COMPOUNDS” (AdoRx Therapeutics Limited, priority 2020, published 2023).
Counter-ions that a name gives are not always drawn.

What was measured:
[1] = target: human Adenosine A3 receptor (Homo sapiens (Human), UniProt P0DMS8); experiment: Adenosine receptor TR-FRET binding assay (A3); details: inhibition of binding of 100 nM CA200645, CHO cell membranes
Protocol: Biological Example 1—Adenosine Receptor Time-Resolved Fluorescence Resonance Energy Transfer (TRFRET) Binding Assay
All FRET binding experiments were conducted at room temperature in white 384-well plates, in assay binding buffer containing 1×LabMed (Cisbio, France), 100 μg/mL saponin, 1% DMSO and 0.02% pluronic acid. Binding of the fluorescently labelled Adenosine receptor antagonist XAC (CA200645, FRET acceptor) to terbium-labelled A1, A2a, A2b and A3 adenosine receptors (FRET donors) was detected by time-resolved FRET due to the close proximity of the donor and acceptor in a binding event. To investigate the ability of unlabelled test compounds to bind to Adenosine A1, A2a, A2b and A3 receptors, dose response curves were constructed that determined the ability of a range of concentrations to inhibit the binding of 30 nM CA200645 to the A2b receptor and 100 nM CA200645 to the A1, A2a, and A3 receptor.
Serial dilution (1:3 dilutions) of test compounds in neat DMSO and transfer of a 400 nL sample of test compound into the assay plate was carried out using the Mosquito (TTP Labtech, UK). The compound samples were incubated for 2 hours at room temperature with a fixed concentration of CA200645 defined for each receptor (see above) and CHO cell membranes containing the human Adenosine A1 (0.5 μg/well), A2a (0.3 μg/well), A2b (1 μg/well) or A3 (1 μg/well) receptor in 40 μL of assay buffer. Total and non-specific binding of CA200645 was determined in the absence and presence of 10 μM XAC, respectively. Following 2 hours incubation, the level of CA200645 binding was detected on a Pherastar FSX (BMG Labtech, Germany) using standard TR-FRET settings. The terbium donor was excited with three laser flashes at a wavelength of 337 nm, and donor and acceptor emission was detected at 620 nm and 665 nm wavelengths, respectively. FRET ratios were obtained by multiplying the acceptor/donor ratio value by 10,000. Specific binding was determined by subtracting the non-specific binding FRET ratio from the total binding FRET ratio. Compound IC50 curves were analysed using GraphPad Prism 7.0 (GraphPad, USA) and Ki affinity values were determined from the obtained IC50 values using the method of Cheng and Prusoff.

[2] = target: human Adenosine A2a receptor (Homo sapiens (Human), UniProt P29274); experiment: Adenosine receptor TR-FRET binding assay (A2a); details: inhibition of binding of 100 nM CA200645, CHO cell membranes
Method in brief: (§1)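 TR-FRET displacement of fluorescent XAC (CA200645; 30 nM for A2b, 100 nM for A1/A2a/A3) from terbium-labelled human receptors in CHO membranes, 2 h at room temperature with saponin, 1% DMSO. Non-specific binding with 10 μM XAC; 665/620 nm ratio; Ki from IC50 by Cheng–Prusoff.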

[3] = target: human Adenosine A1 receptor (Homo sapiens (Human), UniProt P30542); experiment: Adenosine receptor TR-FRET binding assay (A1); details: inhibition of binding of 100 nM CA200645, CHO cell membranes
Method in brief: as §1

[4] = target: human Adenosine A2b receptor (Homo sapiens (Human), UniProt P29275); experiment: Adenosine receptor TR-FRET binding assay (A2b); details: TR-FRET, inhibition of binding of 30 nM CA200645, CHO cell membranes
Method in brief: as §1

Sequence of human Adenosine A1 receptor (P30542 whole entry): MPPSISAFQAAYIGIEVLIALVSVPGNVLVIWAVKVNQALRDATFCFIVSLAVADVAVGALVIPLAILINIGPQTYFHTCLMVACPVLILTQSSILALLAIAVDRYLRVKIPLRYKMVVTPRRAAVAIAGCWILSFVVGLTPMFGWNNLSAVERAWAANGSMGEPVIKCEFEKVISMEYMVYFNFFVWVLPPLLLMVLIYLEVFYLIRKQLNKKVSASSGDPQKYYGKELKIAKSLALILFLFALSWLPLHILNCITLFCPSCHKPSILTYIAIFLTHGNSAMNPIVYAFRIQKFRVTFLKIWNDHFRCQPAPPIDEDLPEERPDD
Sequence of human Adenosine A3 receptor (P0DMS8 whole entry): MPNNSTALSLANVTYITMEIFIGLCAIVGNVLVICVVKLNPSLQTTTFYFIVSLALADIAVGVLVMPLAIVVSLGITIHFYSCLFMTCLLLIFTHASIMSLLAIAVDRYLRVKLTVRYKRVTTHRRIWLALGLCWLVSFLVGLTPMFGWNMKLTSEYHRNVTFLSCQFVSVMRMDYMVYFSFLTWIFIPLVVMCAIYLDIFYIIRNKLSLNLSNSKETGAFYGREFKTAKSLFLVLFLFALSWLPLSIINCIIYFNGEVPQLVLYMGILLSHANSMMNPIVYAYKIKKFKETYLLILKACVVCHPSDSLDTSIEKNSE
Sequence of human Adenosine A2a receptor (P29274 whole entry): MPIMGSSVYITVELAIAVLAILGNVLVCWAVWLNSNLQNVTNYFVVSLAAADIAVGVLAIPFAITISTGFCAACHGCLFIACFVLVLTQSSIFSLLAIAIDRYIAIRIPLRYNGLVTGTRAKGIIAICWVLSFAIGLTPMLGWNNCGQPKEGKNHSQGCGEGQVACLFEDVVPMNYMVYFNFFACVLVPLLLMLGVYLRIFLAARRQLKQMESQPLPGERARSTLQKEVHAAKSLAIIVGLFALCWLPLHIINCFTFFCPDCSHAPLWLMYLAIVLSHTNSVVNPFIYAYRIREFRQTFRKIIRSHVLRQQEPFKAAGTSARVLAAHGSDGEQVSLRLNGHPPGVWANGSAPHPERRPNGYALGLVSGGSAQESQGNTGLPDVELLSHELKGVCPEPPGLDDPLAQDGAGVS
Sequence of human Adenosine A2b receptor (P29275 whole entry): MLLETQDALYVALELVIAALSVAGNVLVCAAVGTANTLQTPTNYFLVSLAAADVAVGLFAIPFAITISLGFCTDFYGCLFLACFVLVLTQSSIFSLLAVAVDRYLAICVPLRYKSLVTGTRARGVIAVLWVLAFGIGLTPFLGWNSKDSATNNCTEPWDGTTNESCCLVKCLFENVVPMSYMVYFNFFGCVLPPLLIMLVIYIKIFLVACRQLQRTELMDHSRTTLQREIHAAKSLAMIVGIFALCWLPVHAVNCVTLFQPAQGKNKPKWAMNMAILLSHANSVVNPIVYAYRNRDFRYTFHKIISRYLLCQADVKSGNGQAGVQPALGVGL

Row | SMILES | Ki [1] | Ki [2] | Ki [3] | Ki [4]
1 | Cc1cc(-c2sc(NC(=O)N3CCC(c4ncno4)CC3)nc2-c2cccc(C#N)c2)cc(C)n1 [Example 6.31, N-[4-(3-Cyanophenyl)-5-(2,6-dimethyl-4-pyridyl)thiazol-2-yl]-4-(1,2,4-oxadiazol-5-yl)piperidine-1-carboxamide] | 186 nM | 1.5 nM | 19 nM | 2.1 nM
2 | Cc1cc(-c2sc(NC(=O)N3CCC(C(=O)NCCO)CC3)nc2-c2cccc(C#N)c2)cc(C)n1 [Example 6.33, N1-[4-(3-Cyanophenyl)-5-(2,6-dimethyl-4-pyridyl)thiazol-2-yl]-N4-(2-hydroxyethyl)piperidine-1,4-dicarboxamide] | 268 nM | 3.65 nM | 51 nM | 3.6 nM
3 | Cc1cc(-c2sc(NC(=O)N3CC4(CCOC(=O)N4)C3)nc2-c2cccc(C#N)c2)cc(C)n1 [Example 6.34, N-[4-(3-Cyanophenyl)-5-(2,6-dimethyl-4-pyridyl)thiazol-2-yl]-6-oxo-7-oxa-2,5-diazaspiro[3.5]nonane-2-carboxamide] | 166 nM | 0.64 nM | 26 nM | 2.1 nM
4 | Cc1cc(-c2sc(NC(=O)N3C[C@H]4COC[C@H]4C3)nc2-c2cccc(C#N)c2)cc(C)n1 [Example 6.49, (3aR,6aS)-N-[4-(3-Cyanophenyl)-5-(2,6-dimethyl-4-pyridyl)thiazol-2-yl]-1,3,3a,4,6,6a-hexahydrofuro[3,4-c]pyrrole-5-carboxamide] | 324 nM | 1.27 nM | 51 nM | 2.2 nM
5 | Cc1cc(-c2sc(NC(=O)N3C[C@@H]4CNC(=O)[C@@H]4C3)nc2-c2cccc(C#N)c2)cc(C)n1 [Example 6.52, (3aS,6aS)-N-[4-(3-Cyanophenyl)-5-(2,6-dimethyl-4-pyridyl)thiazol-2-yl]-3-oxo-1,2,3a,4,6,6a-hexahydropyrrolo[3,4-c]pyrrole-5-carboxamide] | 238 nM | 4.3 nM | 120 nM | 8.6 nM
6 | Cc1cc(-c2sc(NC(=O)N3CCC(C(=O)O)CC3)nc2-c2cccc(C#N)c2)cc(C)n1 [Example 6.62, 1-[[4-(3-Cyanophenyl)-5-(2,6-dimethyl-4-pyridyl)thiazol-2-yl]carbamoyl]piperidine-4-carboxylic acid] | 358 nM | 35.7 nM | 219 nM | 23.3 nM
7 | Cc1cc(-c2sc(NC(=O)N3CC[C@H](C(=O)O)C3)nc2-c2cccc(C#N)c2)cc(C)n1 [Example 6.63, (3S)-1-[[4-(3-Cyanophenyl)-5-(2,6-dimethyl-4-pyridyl)thiazol-2-yl]carbamoyl]pyrrolidine-3-carboxylic acid] | 200 nM | 34.3 nM | 343 nM | 29.2 nM
8 | Cc1cc(-c2sc(NC(=O)N3CC[C@@H](C(=O)O)C3)nc2-c2cccc(C#N)c2)cc(C)n1 [Example 6.65, (3R)-1-[[4-(3-Cyanophenyl)-5-(2,6-dimethyl-4-pyridyl)thiazol-2-yl]carbamoyl]pyrrolidine-3-carboxylic acid] | 295 nM | 45.6 nM | 185 nM | 17.3 nM
9 | Cc1cc(-c2sc(NC(=O)N3CC(C(=O)O)C3)nc2-c2cccc(C#N)c2)cc(C)n1 [Example 6.70, 1-[[4-(3-Cyanophenyl)-5-(2,6-dimethyl-4-pyridyl)thiazol-2-yl]carbamoyl]azetidine-3-carboxylic acid] | 192 nM | 9.59 nM | 163 nM | 13.1 nM
10 | Cc1cc(-c2sc(NC(=O)N3CC[C@H]3C)nc2-c2cccc(C#N)c2)cc(C)n1 [Example 6.78, (2R)-N-[4-(3-Cyanophenyl)-5-(2,6-dimethyl-4-pyridyl)thiazol-2-yl]-2-methyl-azetidine-1-carboxamide] | 37 nM | 0.67 nM | 24 nM | 0.9 nM
11 | Cc1cc(-c2sc(NC(=O)N3CCC4(CCOC4)C3)nc2-c2cccc(C#N)c2)cc(C)n1 (stereo not drawn) [Example 6.80, N-[4-(3-Cyanophenyl)-5-(2,6-dimethyl-4-pyridyl)thiazol-2-yl]-2-oxa-7-azaspiro[4.4]nonane-7-carboxamide] | 450 nM | 0.8 nM | 130 nM | 2.4 nM
12 | Cc1cc(-c2sc(NC(=O)N3CC[C@H]3C(C)(C)O)nc2-c2cccc(C#N)c2)cc(C)n1 [Example 6.82, (2S)-N-[4-(3-Cyanophenyl)-5-(2,6-dimethyl-4-pyridyl)thiazol-2-yl]-2-(1-hydroxy-1-methyl-ethyl)azetidine-1-carboxamide] | 246 nM | 3.67 nM | 116 nM | 5.1 nM
13 | Cc1cc(-c2sc(NC(=O)N3CC[C@@H]3C(C)(C)O)nc2-c2cccc(C#N)c2)cc(C)n1 [Example 6.83, (2R)-N-[4-(3-Cyanophenyl)-5-(2,6-dimethyl-4-pyridyl)thiazol-2-yl]-2-(1-hydroxy-1-methyl-ethyl)azetidine-1-carboxamide] | 294 nM | 67.6 nM | 129 nM | 102 nM
14 | Cc1cc(-c2sc(NC(=O)N3CCC(N4CCOCC4)C3)nc2-c2cccc(C#N)c2)cc(C)n1 (stereo not drawn) [Example 6.84, N-[4-(3-Cyanophenyl)-5-(2,6-dimethyl-4-pyridyl)thiazol-2-yl]-3-morpholino-pyrrolidine-1-carboxamide hemi formate salt] | 568 nM | 4.46 nM | 216 nM | 8.4 nM

The next lines start with the values.

Row | Ki [1] | Ki [2] | Ki [3] | Ki [4] | SMILES
15 | 303 nM | 9.58 nM | 243 nM | 20.9 nM | Cc1cc(-c2sc(NC(=O)N3CCN4C(=O)CNC(=O)C4C3)nc2-c2cccc(C#N)c2)cc(C)n1 (stereo not drawn) [Example 6.35, N-[4-(3-Cyanophenyl)-5-(2,6-dimethyl-4-pyridyl)thiazol-2-yl]-6,9-dioxo-1,3,4,7,8,9a-hexahydropyrazino[1,2-a]pyrazine-2-carboxamide]
16 | 356 nM | 1.82 nM | 91 nM | 10.1 nM | Cc1cc(-c2sc(NC(=O)N3CCN4C(=O)COCC4C3)nc2-c2cccc(C#N)c2)cc(C)n1 (stereo not drawn) [Example 6.37, N-[4-(3-Cyanophenyl)-5-(2,6-dimethyl-4-pyridyl)thiazol-2-yl]-4-oxo-6,7,9,9a-tetrahydro-1H-pyrazino[2,1-c][1,4]oxazine-8-carboxamide]
17 | 389 nM | 10.1 nM | 383 nM | 39.6 nM | Cc1cc(-c2sc(NC(=O)N3CCN4C(=O)CN(C)C(=O)C4C3)nc2-c2cccc(C#N)c2)cc(C)n1 (stereo not drawn) [Example 6.39, N-[4-(3-Cyanophenyl)-5-(2,6-dimethyl-4-pyridyl)thiazol-2-yl]-8-methyl-6,9-dioxo-3,4,7,9a-tetrahydro-1H-pyrazino[1,2-a]pyrazine-2-carboxamide]
18 | 175 nM | 1.12 nM | 51 nM | 8.2 nM | Cc1cc(-c2sc(NC(=O)N3CCN4C(=O)CCCC4C3)nc2-c2cccc(C#N)c2)cc(C)n1 (stereo not drawn) [Example 6.43, N-[4-(3-Cyanophenyl)-5-(2,6-dimethyl-4-pyridyl)thiazol-2-yl]-6-oxo-3,4,7,8,9,9a-hexahydro-1H-pyrido[1,2-a]pyrazine-2-carboxamide]
19 | 455 nM | 3.09 nM | 185 nM | 6.2 nM | CCN1CCN(C(=O)Nc2nc(-c3cccc(C#N)c3)c(-c3cc(C)nc(C)c3)s2)CC1 [Example 6.60, N-[4-(3-Cyanophenyl)-5-(2,6-dimethyl-4-pyridyl)thiazol-2-yl]-4-ethyl-piperazine-1-carboxamide]
20 | 193 nM | 1.44 nM | 133 nM | 5.4 nM | Cc1cc(-c2sc(NC(=O)N3CCC4(CCN(C)C4=O)CC3)nc2-c2cccc(C#N)c2)cc(C)n1 [Example 6.77, N-[4-(3-Cyanophenyl)-5-(2,6-dimethyl-4-pyridyl)thiazol-2-yl]-2-methyl-1-oxo-2,8-diazaspiro[4.5]decane-8-carboxamide]
21 | 216 nM | 12.1 nM | 44 nM | 16 nM | Cc1cc(-c2sc(NC(=O)N3CC(=O)N[C@H](C)C3)nc2-c2cccc(C#N)c2)cc(C)n1 [Example 6.85, (3R)-N-[4-(3-Cyanophenyl)-5-(2,6-dimethyl-4-pyridyl)thiazol-2-yl]-3-methyl-5-oxo-piperazine-1-carboxamide]
